Measurements as given in US9662063B2, “Pain sensory nerve stimulation apparatus” (INTER-UNIVERSITY RESEARCH INSTITUTE CORPORATION NATIONAL …, priority 2011, dated 2017).

Tested on: C fibers
Assay: Current threshold for C fiber stimulation (anode stimulation) after application of capsaicin in vaseline to subjects
Type: in vivo
Conditions: for current threshold: anode stimulation of C fibers
From the text: Even when any one of the above-described configurations of the stimulation electrode 30 is used, at least one of an exogenous algesic substance 60 and a pyrogen 60 is interposed between the stimulation electrode 30 and the contact portion of the living body A, by means of, for example, application (FIG. 1). Examples of the exogenous algesic substance 60 are capsaicin, sanshool, zingerone, camphor, allyl isothiocyanate, and menthol. The exogenous algesic substance is a concept which contains an algesic substance, a phlogogenic substance, and an irritating substance. In the case where the exogenous algesic substance 60 is interposed by means of application, it is preferably applied about 20 minutes before stimulation of the living body. Preferably, the pyrogen 60 warms the stimulation portion of the living body A to about 30° C. by, for example, using heat generation due to an oxidation reaction of a metal. The operating section 24 includes a polarity conversion setting unit. The polarity conversion setting unit can give instructions for causing the polarity switching section 25 which is the electrical polarity converting unit, to convert the electrical polarity. According to the configuration, the electrical polarity of the needle electrode 31 can be set as the anode, and that of the contact electrode 32 can be set as the cathode, or, by contrast, the electrical polarity of the needle electrode 31 can be set as the cathode, and that of the contact electrode 32 can be set as the anode. […] In the case where the polarity switching section 25 sets the electrical polarity of the needle electrode 31 as the cathode, moreover, Aδ fibers can be selectively stimulated. Table 1 indicates results of measurements in which an appropriate amount (a weight ratio of about 0.05 to 0.1 with respect to vaseline) of capsaicin was applied as the exogenous algesic substance to four subjects. Table 1 indicates relationships between the current threshold in the case where the anode stimulation was performed on each subject and C fibers of each subject was stimulated, and the time period elapsed after the application. […] Since an effect due to stimulation was obtained even at a low stimulation intensity (mA), this minimizes the burden on a subject, and realizes the check of the nerve function. It was also confirmed that an effective examination can be conducted without being affected by the skill of the measuring person.

Question: For `COc1cc(CNC(=O)CCCC/C=C/C(C)C)ccc1O` [capsaicin], which current threshold (Subject 1, 5 minutes after application, capsaicin weight ratio about 0.05 to 0.1 with respect to vaseline) is on record?
Answer: Its current threshold is 0.10 (mA).

Question: And the current threshold (Subject 1, 10 minutes after application)?
Answer: Its current threshold is 0.10 (mA).

Question: What about the current threshold (Subject 1, 15 minutes after application) of the same molecule?
Answer: Its current threshold is 0.09 (mA).

Question: What about the current threshold (Subject 1, 20 minutes after application) of the same molecule?
Answer: Its current threshold is 0.09 (mA).

Question: And the current threshold (Subject 2, 5 minutes after application)?
Answer: Its current threshold is 0.32 (mA).

Question: And the current threshold (Subject 2, 10 minutes after application)?
Answer: The current threshold was 0.18 (mA).

Question: What about the current threshold (Subject 2, 15 minutes after application) of the same molecule?
Answer: Its current threshold is 0.13 (mA).

Question: What about the current threshold (Subject 2, 20 minutes after application) of the same molecule?
Answer: The current threshold was 0.15 (mA).

Question: What about the “current threshold reduced to fraction of the normal value” (Subject 2, during 20 minutes after the application) of the same molecule?
Answer: Its value is “about one half”.

Question: And the current threshold (Subject 3, 5 minutes after application)?
Answer: The current threshold was 0.14 (mA).

Question: And the current threshold (Subject 3, 10 minutes after application)?
Answer: The current threshold was 0.13 (mA).

Question: And the current threshold (Subject 3, 20 minutes after application)?
Answer: Its current threshold is 0.09 (mA).

Question: What about the “current threshold reduced to fraction of the normal value” (Subject 3, during 20 minutes after the application) of the same molecule?
Answer: The value was “about two thirds”.

Question: And the current threshold (Subject 4, 5 minutes after application)?
Answer: The current threshold was 0.05 (mA).

Question: What about the current threshold (Subject 4, 10 minutes after application) of the same molecule?
Answer: The current threshold was 0.04 (mA).

Question: And the current threshold (Subject 4, 15 minutes after application)?
Answer: Its current threshold is 0.04 (mA).

Question: And the current threshold (Subject 4, 20 minutes after application)?
Answer: The current threshold was 0.04 (mA).

Question: And the “trend of the current threshold” value (four subjects, during 20 minutes after the application)?
Answer: Its value is “downward trend”.
